The values that follow come from article PMC5508536 (Bioorganic & medicinal chemistry letters, 2017).

Data set [1] has as its target T1, rat M5 (Rattus norvegicus, UniProt P08911).
T1 sequence (P08911 1-531): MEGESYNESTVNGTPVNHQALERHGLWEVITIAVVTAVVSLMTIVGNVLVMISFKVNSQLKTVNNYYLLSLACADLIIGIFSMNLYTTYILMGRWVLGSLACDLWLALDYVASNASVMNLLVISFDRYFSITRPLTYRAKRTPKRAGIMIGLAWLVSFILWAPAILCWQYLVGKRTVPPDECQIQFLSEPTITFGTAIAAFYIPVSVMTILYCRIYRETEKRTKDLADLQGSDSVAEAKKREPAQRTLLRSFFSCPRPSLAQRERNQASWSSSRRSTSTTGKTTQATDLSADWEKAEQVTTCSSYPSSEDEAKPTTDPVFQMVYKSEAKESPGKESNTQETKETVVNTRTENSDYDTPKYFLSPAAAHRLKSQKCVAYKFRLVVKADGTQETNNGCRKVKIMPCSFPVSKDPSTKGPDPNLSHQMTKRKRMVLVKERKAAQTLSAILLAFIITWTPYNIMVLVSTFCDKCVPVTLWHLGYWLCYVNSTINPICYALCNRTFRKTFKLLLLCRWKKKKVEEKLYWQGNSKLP
Put plainly: rat M5 intracellular calcium mobilization assay. In kind it is cell-based.

For data set [2] the following is noted: cited from earlier work.
For data set [3] the following is noted: rat; cited from earlier work.

On to `O=C(c1ccc(F)c(F)c1)N1CCN2C(=O)c3ccccc3[C@@]12c1ccc(N2CCCC(F)(F)C2)cc1` [4d], for which the “rat M5 potency relative to hM5” value in data set [1] is not above 2 fold.

In the case of `O=C(c1ccc(F)c(F)c1)N1CCN2C(=O)c3ccccc3[C@@]12c1ccc(N2CCC(F)(F)CC2)cc1` [4f], the “rat M5 potency relative to hM5” value in data set [1] is not above 2 fold.

Take `O=C(c1ccc(F)c(F)c1)N1CCN2C(=O)c3ccccc3[C@@]12c1ccc(Cl)cc1` [compound 1]: in data set [2] (rat), the “elimination half-life t1/2” value was 80 h.

As to `COc1ccc([C@@]23c4ccccc4C(=O)N2CCN3C(=O)c2cc(F)c(F)c(F)c2)cc1C` [compound 2], the CLp in data set [2] (rat PK) is more than 70 mL/min/kg. The CNS penetration entry in data set [3] is given as “limited CNS penetration”.
